# According to article PMC12444472, “BCI inhibits MKP3 by targeting the kinase-binding domain and disrupting ERK2 interaction” (The Journal of Biological Chemistry, 2025):
# Entries after “also recorded” stand apart in the source; their conditions may differ.
# Columns and labels:
# MKP3^CD = biological target: T1, MKP3^CD (Homo sapiens, UniProt Q16828); assay: MST affinity measurement; assay type: binding
# T1 construct: ^15N-labeled MKP3^1–154, MKP3^14–152, MKP3^204–350; made in house; host or cells: Escherichia coli BL21(DE3)
# T1 sequence (Q16828 204-350): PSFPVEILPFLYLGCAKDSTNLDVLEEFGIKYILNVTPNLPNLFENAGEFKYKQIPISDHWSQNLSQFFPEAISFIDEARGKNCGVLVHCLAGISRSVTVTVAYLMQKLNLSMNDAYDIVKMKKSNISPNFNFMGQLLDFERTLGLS
# Protocol: MST measurements were performed using fluorescently labeled proteins and the inhibitor BCI (CAS: 1245792-51-1; TargetMol) on a Monolith instrument (NanoTemper Technologies). The RED–Tris–NTA second-generation dye was dissolved in MST buffer (20 mM Hepes, pH 7.4, 200 mM NaCl, and 0.05% Tween-20) to prepare a 5 μM stock solution. Fluorescent labeling of MKP proteins followed the standard protocol of the MO-L018 RED–Tris–NTA protein labeling kit, leveraging the His-tag–dye interaction.
# The BCI compound was prepared as a 600 to 750 μM stock solution in MST buffer with 10% DMSO to enhance solubility, followed by a 16-point serial dilution. The diluted BCI solutions were thoroughly mixed with labeled MKP proteins (50 nM) at a 1:1 volume ratio, yielding a final volume of 10 μl. The reaction mixtures were incubated in the dark for 10 min at room temperature before being loaded into standard glass capillaries. Measurements were carried out on the Monolith instrument (100% LED, 40% IR laser power) with a 20 s laser on time. The normalized fluorescence values from triplicate measurements were averaged at each concentration and fitted to a 1:1 binding model using the KD model in MO.Affinity software (v3.0.5, NanoTemper Technologies) to determine the binding affinities between MKP proteins and the BCI inhibitor. […]
# [1] = biological target: T2, MKP3^KBD and ERK2 complex (Homo sapiens, UniProt Q16828); assay: NMR competitive binding titration of ERK2 and BCI; details: excess BCI added to MKP3^KBD and ERK2 complex
# T2 construct: spectra of ^15N-MKP3^1–154 in the presence of ERK2; made in house; host or cells: Escherichia coli BL21(DE3)
# T2 sequence (Q16828 1-154): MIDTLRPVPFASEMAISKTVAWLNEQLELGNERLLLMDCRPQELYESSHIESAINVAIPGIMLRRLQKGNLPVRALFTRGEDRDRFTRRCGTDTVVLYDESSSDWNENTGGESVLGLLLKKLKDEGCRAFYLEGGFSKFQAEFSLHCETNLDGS
# Protocol: NMR data were collected at 298 K on a Bruker AVANCE NEO 800 MHz spectrometer (Bruker BioSpin) equipped with a ^1H&^19F/^13C/^15N TCI cryogenic probe. Backbone resonances of MKP3^1–154 were assigned using 2D/3D experiments, including 2D ^1H–^15N HSQC and 3D ^1H/^13C/^15N CBCA(CO)NH, HNCACB, HNCO, and HN(CA)CO, performed with uniformly ^13C/^15N labeled protein at a final concentration of 0.39 mM in buffer containing 20 mM imidazole (pH 6.0), 100 mM NaCl, 5 mM DTT, 0.5 mM EDTA, and 5% (v/v) D2O. The buffer used for backbone resonance assignment was similar to that used for the previously reported NMR structure ([15]). […] The relaxation rates R1 (1/T1) and R2 (1/T2) for each residue were determined by fitting the peak intensities from spectra acquired at the various delay times to a single-exponential decay function: I/I0 = exp(-R1,2·t), where I0 is the intensity at t = 0, and I is the intensity at a delay time t. […] Repeated experiments were performed to estimate uncertainties, and the propagated error for each NOE value was calculated using the following equation: σNOE = NOE × ((σsat/Isat)^2+(σunsat/Iunsat)^2)^1/2, where σsat and σunsat are the SDs of the saturated and unsaturated spectra, respectively, and Isat and Iunsat are the corresponding signal intensities. NMR data were processed using TopSpin 4.1.1 (Bruker BioSpin) or NMRPipe ([54]) and analyzed with POKY ([55]).
smiles,measurement,setting,value
"O=C1/C(=C/c2ccccc2)C(NC2CCCCC2)c2ccccc21 (centres unmarked) [BCI, (E)-2-benzylidene-3-(cyclohexylamino)-2,3-dihydro-1H-inden-1-one]",binding by MST,MKP3^CD,no detectable binding; also recorded: no binding was detected
same,effect on ERK2-bound MKP3^KBD spectrum,[1],reversion of specific MKP3^KBD peaks to their ERK2-unbound state
